These results are taken from ChEMBL document CHEMBL5143734, “Seco-Lupane Triterpene Derivatives Induce Ferroptosis through GPX4/ACSL4 Axis and Target Cyclin D1 to Block the Cell Cycle” (J Med Chem, 2022).

Holding throughout (assay type): functional, cell-based
One assay concerns MCF7. The experiment in a line: Cytotoxicity against human MCF7 cells assessed as reduction in cell viability by CCK-8 assay. In general terms: Tetrazolium dyes change colour on reduction, which living cells bring about.
In a further assay the test system is A549. The assay is described as follows: Cytotoxicity against human A549 cells assessed as reduction in cell viability by CCK-8 assay.
A further assay deals with HepG2. The assay is described as follows: Cytotoxicity against human HepG2 cells assessed as reduction in cell viability by CCK-8 assay.
The subject of the next assay is PC-3M. The experiment in a line: Cytotoxicity against human PC-3M cells assessed as reduction in cell viability by CCK-8 assay.
A further assay relates to PANC-1. The assay is described as follows: Cytotoxicity against human PANC-1 cells assessed as reduction in cell viability by CCK-8 assay.

As for `C=C(C)[C@@H]1CC[C@]2(C(=O)OCCCn3cncn3)CC[C@]3(C)[C@H](C[C@H]4OC(=O)C[C@@H](O)[C@]5(C)[C@@H]4[C@@]3(C)CC[C@H]5C(=C)C)[C@@H]12`, the IC50 in the assay with MCF7 is 51.2 µM; in the assay with A549 it was 45.2 µM; with HepG2, above 200 µM; with PC-3M, 34 µM; in the assay on PANC-1, 140 µM.
Take `C=C(C)[C@@H]1CC[C@]2(C(=O)OCCCCCCn3ccnc3C)CC[C@]3(C)[C@H](C[C@@H](O)[C@@H]4[C@@]5(C)C(CC(=O)OC)OC(C)(C)C5CC[C@]43C)[C@@H]12` (stereo not given in full): the IC50 is 29.9 µM in the assay with MCF7; 25.4 µM in the assay with A549; 12 µM in the assay on HepG2; 20.9 µM with PC-3M; 18.7 µM in the assay with PANC-1.
The matching figures for `C=C(C)[C@@H]1CC[C@]2(C(=O)OCCCCCn3ccnc3)CC[C@]3(C)[C@H](C[C@@H](O)[C@@H]4[C@@]5(C)C(CC(=O)OC)OC(C)(C)C5CC[C@]43C)[C@@H]12` (stereo not given in full): 65.1 µM, 34.9 µM, 24.6 µM, 30.6 µM and 50 µM.
As for `C=C(C)[C@@H]1CC[C@]2(C(=O)OCCCCn3ccnc3C)CC[C@]3(C)[C@H](C[C@@H](O)[C@@H]4[C@@]5(C)C(CC(=O)OC)OC(C)(C)C5CC[C@]43C)[C@@H]12` (stereo not given in full), the IC50 in the assay with MCF7 stood at 67.3 µM; in the assay with A549 it was 31.4 µM; in the assay on HepG2, 21.7 µM; in the assay on PC-3M it was 36 µM; in the assay with PANC-1 it was 48.3 µM.
For `C=C(C)[C@@H]1CC[C@]2(C(=O)OCCCCCn3ccnc3C)CC[C@]3(C)[C@H](C[C@@H](O)[C@@H]4[C@@]5(C)C(CC(=O)OC)OC(C)(C)C5CC[C@]43C)[C@@H]12` (stereo not given in full) the same measures were 53.8 µM, 34.5 µM, 20.2 µM, 37.8 µM and 43.1 µM.
The matching figures for `C=C(C)[C@@H]1CC[C@]2(C(=O)OCCCCn3cncn3)CC[C@]3(C)[C@H](C[C@H]4OC(=O)C[C@@H](O)[C@]5(C)[C@@H]4[C@@]3(C)CC[C@H]5C(=C)C)[C@@H]12`: 46.2 µM, 31.3 µM, 110 µM, 18.1 µM and 60.5 µM.
The matching figures for `C=C(C)[C@@H]1CC[C@]2(C(=O)OCCCn3ccnc3CC)CC[C@]3(C)[C@H](C[C@H]4OC(=O)C[C@@H](O)[C@]5(C)[C@@H]4[C@@]3(C)CC[C@H]5C(=C)C)[C@@H]12`: 47 µM, 21.2 µM, 16.4 µM, 12.3 µM and 26.9 µM.
`C=C(C)[C@@H]1CC[C@]2(C(=O)OCCCCCCCCCCBr)CC[C@]3(C)[C@H](C[C@H]4OC(=O)C[C@@H](O)[C@]5(C)[C@@H]4[C@@]3(C)CC[C@H]5C(=C)C)[C@@H]12`: the half-inhibitory concentration (IC50) in the assay with MCF7 worked out at 53.9 µM; in the assay on A549, 22 µM; in the assay with HepG2, 10.9 µM; with PC-3M it was 17.3 µM; in the assay on PANC-1, 23.1 µM.
The matching figures for `C=C(C)[C@@H]1CC[C@]2(C(=O)OCCCn3cc(CCN)c4ccccc43)CC[C@]3(C)[C@H](C[C@H]4OC(=O)C[C@@H](O)[C@]5(C)[C@@H]4[C@@]3(C)CC[C@H]5C(=C)C)[C@@H]12`: 11.8 µM, 7.21 µM, 1.78 µM, 6.28 µM and 9.59 µM.
Turning to `C=C(C)[C@@H]1CC[C@]2(C(=O)OCCCCn3cnc(C)c3)CC[C@]3(C)[C@H](C[C@@H](O)[C@@H]4[C@@]5(C)C(CC(=O)OC)OC(C)(C)C5CC[C@]43C)[C@@H]12` (stereo not given in full), the IC50 is 65.6 µM with MCF7; 35.4 µM in the assay on A549; 19.9 µM in the assay with HepG2; 25 µM in the assay with PC-3M; 38.9 µM in the assay with PANC-1.
For `C=C(C)[C@@H]1CC[C@]2(C(=O)OCCCCBr)CC[C@]3(C)[C@H](C[C@H]4OC(=O)C[C@@H](O)[C@]5(C)[C@@H]4[C@@]3(C)CC[C@H]5C(=C)C)[C@@H]12` the same measures were above 200 µM, 89 µM, 124 µM, 82.2 µM and 200 µM.
The matching figures for `C=C(C)[C@@H]1CC[C@]2(C(=O)OCCCn3ccnc3C)CC[C@]3(C)[C@H](C[C@H]4OC(=O)C[C@@H](O)[C@]5(C)[C@@H]4[C@@]3(C)CC[C@H]5C(=C)C)[C@@H]12`: 46.8 µM, 21.5 µM, 14.6 µM, 16 µM and 24.8 µM.
In the case of `C=C(C)[C@@H]1CC[C@]2(C(=O)OCCCn3ccnc3C)CC[C@]3(C)[C@H](C[C@@H](O)[C@@H]4[C@@]5(C)C(CC(=O)OC)OC(C)(C)C5CC[C@]43C)[C@@H]12` (stereo not given in full), the IC50 in the assay with MCF7 was found to be 69.5 µM; in the assay on A549 it was 24.9 µM; in the assay on HepG2, 22.6 µM; in the assay with PC-3M, 34.4 µM; with PANC-1, 50.6 µM.
For `C=C(C)[C@@H]1CC[C@]2(C(=O)OCCCCCn3cnc(C)c3)CC[C@]3(C)[C@H](C[C@@H](O)[C@@H]4[C@@]5(C)C(CC(=O)OC)OC(C)(C)C5CC[C@]43C)[C@@H]12` (stereo not given in full) the same measures were 60.8 µM, 28.5 µM, 14.1 µM, 30.1 µM and 33.2 µM.
`C=C(C)[C@@H]1CC[C@]2(C(=O)OCCCCCBr)CC[C@]3(C)[C@H](C[C@@H](O)[C@@H]4[C@@]5(C)C(CC(=O)OC)OC(C)(C)C5CC[C@]43C)[C@@H]12` (stereo not given in full): the IC50 in the assay on MCF7 turned out to be 80 µM; with A549 it was 40.6 µM; with HepG2 it was 27.7 µM; with PC-3M, 44.1 µM; in the assay with PANC-1 it was 54.9 µM.
The matching figures for `C=C(C)[C@@H]1CC[C@]2(C(=O)OCCCCCCn3ccnc3CC)CC[C@]3(C)[C@H](C[C@H]4OC(=O)C[C@@H](O)[C@]5(C)[C@@H]4[C@@]3(C)CC[C@H]5C(=C)C)[C@@H]12`: 48.8 µM, 14.6 µM, 3.59 µM, 12.9 µM and 17.5 µM.
Turning to `C=C(C)[C@@H]1CC[C@]2(C(=O)OCCCCCn3cncn3)CC[C@]3(C)[C@H](C[C@H]4OC(=O)C[C@@H](O)[C@]5(C)[C@@H]4[C@@]3(C)CC[C@H]5C(=C)C)[C@@H]12`, the IC50 came out at 108 µM in the assay on MCF7; 18.7 µM with A549; 38.3 µM with HepG2; 54.3 µM in the assay with PC-3M; 41.6 µM in the assay on PANC-1.
The matching figures for `C=C(C)[C@@H]1CC[C@]2(C(=O)OCCCCCn3ccnc3C)CC[C@]3(C)[C@H](C[C@H]4OC(=O)C[C@@H](O)[C@]5(C)[C@@H]4[C@@]3(C)CC[C@H]5C(=C)C)[C@@H]12`: 46 µM, 15.9 µM, 8.89 µM, 12.4 µM and 14.2 µM.
For `C=C(C)[C@@H]1CC[C@]2(C(=O)OCCCn3ccnc3)CC[C@]3(C)[C@H](C[C@H]4OC(=O)C[C@@H](O)[C@]5(C)[C@@H]4[C@@]3(C)CC[C@H]5C(=C)C)[C@@H]12` the same measures were 48.6 µM, 55.5 µM, above 200 µM, 24.7 µM and 89.1 µM.
For `C=C(C)[C@@H]1CC[C@]2(C(=O)OCCCCCCBr)CC[C@]3(C)[C@H](C[C@H]4OC(=O)C[C@@H](O)[C@]5(C)[C@@H]4[C@@]3(C)CC[C@H]5C(=C)C)[C@@H]12` the same measures were 75.7 µM, 27.6 µM, 12.3 µM, 16.1 µM and 21.8 µM.
Take `C=C(C)[C@@H]1CC[C@]2(C(=O)OCCCCCCn3ccnc3)CC[C@]3(C)[C@H](C[C@H]4OC(=O)C[C@@H](O)[C@]5(C)[C@@H]4[C@@]3(C)CC[C@H]5C(=C)C)[C@@H]12`: the IC50 was 47.1 µM with MCF7; 24 µM in the assay with A549; 14.5 µM in the assay with HepG2; 23.2 µM in the assay with PC-3M; 45.3 µM in the assay on PANC-1.
The matching figures for `C=C(C)[C@@H]1CC[C@]2(C(=O)OCCCn3cnc(C)c3)CC[C@]3(C)[C@H](C[C@@H](O)[C@@H]4[C@@]5(C)C(CC(=O)OC)OC(C)(C)C5CC[C@]43C)[C@@H]12` (stereo not given in full): 71.9 µM, 31.5 µM, 21.6 µM, 30.6 µM and 49.2 µM.
For `C=C(C)[C@@H]1CC[C@]2(C(=O)OCCCCCCn3ccnc3C)CC[C@]3(C)[C@H](C[C@H]4OC(=O)C[C@@H](O)[C@]5(C)[C@@H]4[C@@]3(C)CC[C@H]5C(=C)C)[C@@H]12` the same measures were 76.2 µM, 18.9 µM, 12.9 µM, 14 µM and 17.9 µM.
For `C=C(C)[C@@H]1CC[C@]2(C(=O)OCCCCn3ccnc3)CC[C@]3(C)[C@H](C[C@@H](O)[C@@H]4[C@@]5(C)C(CC(=O)OC)OC(C)(C)C5CC[C@]43C)[C@@H]12` (stereo not given in full) the same measures were 75.2 µM, 36.7 µM, 26 µM, 44.3 µM and 53.4 µM.
In the case of `C=C(C)[C@@H]1CC[C@]2(C(=O)O)CC[C@]3(C)[C@H](C[C@@H](O)[C@@H]4[C@@]5(C)C(CC(=O)OC)OC(C)(C)C5CC[C@]43C)[C@@H]12` (stereo not given in full), the half-maximal inhibitory concentration (IC50) in the assay with MCF7 is above 200 µM; in the assay with A549 it was above 200 µM; in the assay on HepG2, above 200 µM; in the assay on PC-3M, 103 µM; with PANC-1 it was above 200 µM.

As usually defined, the IC50 is the concentration that inhibits the measured activity by half.
